Patent US12528812B2 (Genentech, Inc., priority 2020, dated 2026)

What was measured:
[1] = tested on: IL-13-stimulated STAT6 phosphorylation in human lung bronchial epithelial BEAS-2B cell line; assay: P-STAT6 BEAS-2B + IL-13 cell assay; type: cell-based; settings: Homo sapiens, BEAS-2B, BEAS2B cells, IL13 stimulation; read-out: Cellular JAK1 PSTAT6 BEAS2B + IL13
Protocol: In order to study the effect of JAK1 inhibitors in a cell line that is relevant to the cell biology of human asthma, an IL-13-stimulated STAT6 phosphorylation assay in the human lung bronchial epithelial BEAS-2B cell line was developed.
BEAS-2B cells (ATCC′ CRL-9609™) were grown in Bronchial Epithelial Growth Medium (BEGM) (Lonza Catalog No. CC-3170; Walkersville, MD; or PromoCell Catalog No. C-21060; Heidelberg, Germany). Test compound stock solutions (0.5 mM in DMSO) were serially diluted 1:2 in DMSO to generate a 10-point concentration curve (at 500× test concentration), which was further diluted by a 50-fold dilution step in BEGM to generate a 10× concentration curve (in 2% DMSO). Cells were plated at 100,000 cells/well in 200 μL of BEGM in 96-well plates and incubated for 48 hours at 37° C. in a humidified incubator. Medium was aspirated from the cells and replaced with 70 μL of fresh BEGM. Diluted test compound (10 μL; or 2% DMSO in assay medium) was added to the cells, and the plates were incubated for 1 hour at 37° C. in a humidified incubator. Twenty μL of 250 ng/mL human recombinant IL-13 (Bio Techne Catalog No. 213-ILB) was then added to the cells and incubated for 15 minutes at 37° C. Medium was aspirated from the cells and 60 μL of ice-cold 1× cell lysis buffer (Cell Signaling Technologies; Catalog No. 9803S) containing 1 mM PMSF was added to the cells. Assay plates were incubated at −80° C. for at least 1 hour. P-STAT6 was measured by coating GAR plates (MSD; Catalog No. L45RA-1) with rabbit anti-human total STAT6 antibody (Cell Signaling Technologies; Catalog No. 9362S), incubating the cell lysates in the coated plates overnight at 4° C., and then detecting with mouse anti-phospho-STAT6 (Tyr641) Clone 16E12 antibody (Millipore; Catalog No. 05-590, custom labeled by MSD with SULFO-tag) using standard MSD plate processing, washing, and detection protocols. Plates were read on the MESO SECTOR 5600.
Data analysis was performed by subtracting negative control values from all wells and determining percent of control using the positive control values; the IC50 was determined with a four-parameter logistic fit model as shown in Equation 4.

[2] = molecular target: Recombinant human JAK2 kinase domain protein (Residues 812-1132) (Homo sapiens, UniProt O60674); assay: JAK2 biochemical assay (LabChip mobility shift, Ki); settings: Biochem JAK2 Ki
[3] = molecular target: T1, recombinant human JAK1 kinase domain protein (Residues 854-1154) (Homo sapiens, UniProt P23458); assay: JAK1 biochemical assay (LabChip mobility shift, Ki); settings: read-out: Biochem JAK1 Ki
T1 construct: human JAK1 kinase domain protein (Residues 854-1154); purchased Proteros Biostructures GmbH (Martinsried, Germany); host or cells: insect cells
T1 sequence (P23458 854-1154): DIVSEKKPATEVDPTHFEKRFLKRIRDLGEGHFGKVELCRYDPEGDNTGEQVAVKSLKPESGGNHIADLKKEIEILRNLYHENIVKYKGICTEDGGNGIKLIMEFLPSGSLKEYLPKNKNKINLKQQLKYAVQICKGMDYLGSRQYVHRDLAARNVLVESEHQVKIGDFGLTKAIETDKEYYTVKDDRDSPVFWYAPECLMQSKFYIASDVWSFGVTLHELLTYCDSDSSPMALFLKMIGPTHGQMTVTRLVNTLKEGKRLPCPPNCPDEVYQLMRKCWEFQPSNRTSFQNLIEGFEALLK

Sequence of Recombinant human JAK2 kinase domain protein (Residues 812-1132) (O60674 812-1132): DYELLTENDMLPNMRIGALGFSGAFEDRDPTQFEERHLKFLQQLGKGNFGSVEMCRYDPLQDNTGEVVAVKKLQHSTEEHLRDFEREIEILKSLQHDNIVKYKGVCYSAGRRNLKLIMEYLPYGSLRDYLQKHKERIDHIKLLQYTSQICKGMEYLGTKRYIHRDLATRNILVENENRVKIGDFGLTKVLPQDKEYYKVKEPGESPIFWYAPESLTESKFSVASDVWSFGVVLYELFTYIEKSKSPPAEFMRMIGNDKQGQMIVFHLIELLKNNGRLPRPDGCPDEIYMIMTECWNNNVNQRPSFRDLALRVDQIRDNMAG

Structure (SMILES)	Ki [2] [nM]	Ki [3] [nM]	IC50 [1] [nM]
Cn1cc(NC(=O)c2cnn3cccnc23)c(-c2cc(Oc3ccc(CN4CCCC(O)C4)cc3)ccc2OC(F)F)n1 (racemic) [Example 164, N-[3-[2-(difluoromethoxy)-5-[4-[[rac-(3S)-3-hydroxy-1-piperidyl]methyl]phenoxy]phenyl]-1-methyl-pyrazol-4-yl]pyrazolo[1,5-a]pyrimidine-3-carboxamide]	1.5	3.2	38
CCN1CC(O)(Cn2cc(Oc3ccc(OC(F)F)c(-c4nn(C)cc4NC(=O)c4cnn5cccnc45)c3)cn2)C1 [Example 207, N-[3-[2-(difluoromethoxy)-5-[1-[(1-ethyl-3-hydroxy-azetidin-3-yl)methyl]pyrazol-4-yl]oxy-phenyl]-1-methyl-pyrazol-4-yl]pyrazolo[1,5-a]pyrimidine-3-carboxamide]	0.53	0.73	33
CNCc1ccnn1-c1cccc(Oc2ccc(OC(F)F)c(-c3nn(C)cc3NC(=O)c3cnn4cccnc34)c2)c1 [Example 66, N-[3-[2-(difluoromethoxy)-5-[3-[5-(methylaminomethyl)pyrazol-1-yl]phenoxy]phenyl]-1-methyl-pyrazol-4-yl]pyrazolo[1,5-a]pyrimidine-3-carboxamide]	3.6	3.9	130
O=C(Nc1c[nH]nc1-c1cc(Oc2ccc(OCC(F)(F)F)cc2)ccc1OC(F)F)c1cnn2cccnc12 [Example 5, N-[3-[2-(difluoromethoxy)-5-[4-(2,2,2-trifluoroethoxy)phenoxy]phenyl]-1H-pyrazol-4-yl]pyrazolo[1,5-a]pyrimidine-3-carboxamide]	0.91	1.1	18
NCc1cccc(Oc2ccc(OC(F)F)c(-c3n[nH]cc3NC(=O)c3cnn4cccnc34)c2)c1F [Example 24, N-[3-[5-[3-(aminomethyl)-2-fluoro-phenoxy]-2-(difluoromethoxy)phenyl]-1H-pyrazol-4-yl]pyrazolo[1,5-a]pyrimidine-3-carboxamide]	0.56	0.64	22
CN(CCN1CCOCC1)C(=O)c1cccc(Oc2ccc(OC(F)F)c(-c3nn(C)cc3NC(=O)c3cnn4cccnc34)c2)c1 [Example 92, N-[3-[2-(difluoromethoxy)-5-[3-[methyl(2-morpholinoethyl)carbamoyl]phenoxy]phenyl]-1-methyl-pyrazol-4-yl]pyrazolo[1,5-a]pyrimidine-3-carboxamide]	0.68	1.1	56
Cn1cc(NC(=O)c2cnn3cccnc23)c(-c2cc(Oc3cccc([C@H]4COCCN4)c3)ccc2OC(F)F)n1 (stereo in doubt) [Example 33, N-[3-[2-(difluoromethoxy)-5-[3-[rac-(3S)-morpholin-3-yl]phenoxy]phenyl]-1-methyl-pyrazol-4-yl]pyrazolo[1,5-a]pyrimidine-3-carboxamide]	0.43	0.95	62
CN(C)CCn1cc(Oc2ccc(OC(F)F)c(-c3nn(C)cc3NC(=O)c3cnn4cccnc34)c2)cn1 [Example 73, N-[3-[2-(difluoromethoxy)-5-[1-[2-(dimethylamino)ethyl]pyrazol-4-yl]oxy-phenyl]-1-methyl-pyrazol-4-yl]pyrazolo[1,5-a]pyrimidine-3-carboxamide]	1.7	1.6	95

Continued, in another order:

Ki [2] [nM]	Ki [3] [nM]	Structure (SMILES)	IC50 [1] [nM]
0.31	0.3	O=C(Nc1cn(CCN[C@H]2C[C@H](O)C2)nc1-c1cc(Oc2ccccc2)ccc1OC(F)F)c1cnn2cccnc12 [Example 43, N-[3-[2-(difluoromethoxy)-5-phenoxy-phenyl]-1-[2-[(3-hydroxycyclobutyl)amino]ethyl]pyrazol-4-yl]pyrazolo[1,5-a]pyrimidine-3-carboxamide]	24
0.12	0.27	Cn1cc(NC(=O)c2cnn3cccnc23)c(-c2cc(Oc3ccc(CC(=O)N4CCOCC4)cc3)ccc2OC(F)F)n1 [Example 156, N-[3-[2-(difluoromethoxy)-5-[4-(2-morpholino-2-oxo-ethyl)phenoxy]phenyl]-1-methyl-pyrazol-4-yl]pyrazolo[1,5-a]pyrimidine-3-carboxamide]	23
0.23	0.29	Cn1cc(NC(=O)c2cnn3cccnc23)c(-c2cc(Oc3cnn([C@H]4CNCC[C@@H]4O)c3)ccc2OC(F)F)n1 (stereo in doubt) [Example 180, N-[3-[2-(difluoromethoxy)-5-[1-[rac-(3S,4S)-4-hydroxy-3-piperidyl]pyrazol-4-yl]oxy-phenyl]-1-methyl-pyrazol-4-yl]pyrazolo[1,5-a]pyrimidine-3-carboxamide]	95
0.42	1.7	Cn1cc(NC(=O)c2cnn3cccnc23)c(-c2cc(Oc3ccc4c(c3)CCNC4)ccc2OC(F)F)n1 [Example 63, N-[3-[2-(difluoromethoxy)-5-(1,2,3,4-tetrahydroisoquinolin-6-yloxy)phenyl]-1-methyl-pyrazol-4-yl]pyrazolo[1,5-a]pyrimidine-3-carboxamide]	47
0.18	0.24	Cc1ccc(Oc2ccc(OC(F)F)c(-c3n[nH]cc3NC(=O)c3cnn4cccnc34)c2)cc1C(=O)N(C)C [Example 10, N-[3-[2-(difluoromethoxy)-5-[3-(dimethylcarbamoyl)-4-methyl-phenoxy]phenyl]-1H-pyrazol-4-yl]pyrazolo[1,5-a]pyrimidine-3-carboxamide]	42
0.23	0.5	Cn1cc(NC(=O)c2cnn3cccnc23)c(-c2cc(Oc3ccc(C(N)=O)cc3)ccc2OC(F)F)n1 [Example 136, N-[3-[5-(4-carbamoylphenoxy)-2-(difluoromethoxy)phenyl]-1-methyl-pyrazol-4-yl]pyrazolo[1,5-a]pyrimidine-3-carboxamide]	46
0.35	0.37	Cn1cc(NC(=O)c2cnn3cccnc23)c(-c2cc(Oc3cccc(CNCCO)c3)ccc2OC(F)F)n1 [Example 23, N-[3-[2-(difluoromethoxy)-5-[3-[(2-hydroxyethylamino)methyl]phenoxy]phenyl]-1-methyl-pyrazol-4-yl]pyrazolo[1,5-a]pyrimidine-3-carboxamide]	24
0.31	0.34	CN(CCO)Cc1cccc(Oc2ccc(OC(F)F)c(-c3nn(C)cc3NC(=O)c3cnn4cccnc34)c2)c1 [Example 22]	22
0.27	0.4	Cn1cc(NC(=O)c2cnn3cccnc23)c(-c2cc(Oc3ccc4c(c3)CN(CCO)CC4)ccc2OC(F)F)n1 [Example 76, N-[3-[2-(difluoromethoxy)-5-[[2-(2-hydroxyethyl)-3,4-dihydro-1H-isoquinolin-7-yl]oxy]phenyl]-1-methyl-pyrazol-4-yl]pyrazolo[1,5-a]pyrimidine-3-carboxamide]	12
0.38	0.68	Cn1cc(NC(=O)c2cnn3cccnc23)c(-c2cc(Oc3ccnnc3)ccc2OC(F)F)n1 [Example 202, N-[3-[2-(difluoromethoxy)-5-pyridazin-4-yloxy-phenyl]-1-methyl-pyrazol-4-yl]pyrazolo[1,5-a]pyrimidine-3-carboxamide]	26
